Values of other authors, collected in publication PMC2990605 (British Journal of Cancer, 2010).

Tested on: human promyelocytic leukaemia cell line HL-60
Set-up: method as in Krige et al, 2008
Details: ref Krige et al, 2008; cited from earlier work

SMILES: CC(C)C[C@@H](C(=O)N[C@H](C(=O)OC1CCCC1)c1ccccc1)[C@H](O)C(=O)NO [tosedostat]
- gene expression analysis, transcriptional response: transcriptional response to the drug indicative of amino acid depletion
- phosphorylation of mTOR substrates: inhibited
- protein synthesis: reduced
